The values below come from patent US20240287368A1, “COMPOSITION CONTAINING REFRIGERANT, USE OF SAME, REFRIGERATOR HAVING SAME, AND METHOD FOR OPERATING SAID REFRIGERATOR” (DAIKIN INDUSTRIES, LTD., priority 2021, published 2024).

A short description of data set [1]: Occupational exposure limit (OEL) and ASHRAE toxicity class of mixed refrigerant, calculated from component OELs and mole fractions. Particulars: ANSI/ASHRAE Standard 34-2019; for Occupational exposure limit: center composition of mixed refrigerant. The text has this:
In the present specification, a “toxicity class A” refrigerant means that the occupational exposure limit (OEL) of the mixed refrigerant is 400 ppm or more in accordance with the US ANSI/ASHRAE Standard 34-2019. A “toxicity class B” refrigerant means that the occupational exposure limit of the mixed refrigerant is less than 400 ppm in accordance with the US ANSI/ASHRAE Standard 34-2019.
In the present disclosure, the occupational exposure limit (OEL) of a mixed refrigerant refers to a value evaluated based on the center composition, unless otherwise specified. However, calculation is performed with the OEL of each refrigerant as follows. • R32: 1000 ppm • R152a: 1000 ppm • HFO-1132(E): 350 ppm
The OEL of the center composition of a mixed refrigerant is calculated in accordance with the following formula.
wherein an represents the OEL of each refrigerant compound, and mfn represents the mole fraction of each refrigerant compound.
The occupational exposure limit (OEL value) of each mixed refrigerant was investigated.

The conditions of data set [2]: component values used for the calculation; cited from earlier work.

Structures are written as SMILES.

For `F/C=C/F` [0-1, trans-1,2-difluoroethylene], in data set [1], the ASHRAE toxicity class result was “B (the occupational exposure limit of the mixed refrigerant is less than 400 ppm)” and the Occupational exposure limit is listed as 350 ppm. Also, in data set [2], the “OEL of each refrigerant” value was 350 ppm.

For the molecule `CC(F)F` [0-2, 1,1-difluoroethane], in data set [1], the ASHRAE toxicity class result is “A (the occupational exposure limit (OEL) of the mixed refrigerant is 400 ppm or more)” and the Occupational exposure limit is on record as 1000 ppm.

In the case of `FCF` [0-3, difluoromethane], in data set [1], the ASHRAE toxicity class result is “A (the occupational exposure limit (OEL) of the mixed refrigerant is 400 ppm or more)” and the Occupational exposure limit was 1000 ppm. In data set [2], the “OEL of each refrigerant” value was 1000 ppm.
